This assay concerns the target T1, hVR1 receptors (Homo sapiens, UniProt Q8NER1).
T1 construct: expressed in transfected cells; host or cells: HEK293 cells (membranes)
In words: [3H] RTX Binding Assay (inhibition of [3H] RTX binding to membranes of HEK293 cells transfected with human VR1). How it is done: Iodinated RTX derivatives of the present invention were tested for their ability to inhibit the binding of [^3H] RTX to hVR1 receptors in a [^3H] RTX Binding Assay.
HEK293 cells were transfected with human VRI vanilloid receptors, as described in U.S. patent application Ser. No. 09/292700 to Dubin, A., et. al, filed on Apr. 15, 1999 (herein incorporated by reference), and washed with Hank's Balanced Salt Solution, dissociated with cell dissocation buffer (Sigma), and then centrifuged at 1000 x g for 5 min. Cell pellets were homogenized in cold 20 mM HEPES buffer, pH 7.4, containing 5.8 mM NaCl, 320 mM sucrose, 2 mM MgCl2, […] and 5 mM KCl and centrifuged at 1000 x g for 15 min. The resultant supernate was then centrifuged at 40,000 x g for 15 min. The pelleted membranes were kept in an −80° C. freezer.
The assay procedure was modified from that described in Szallasi, A. and Blumberg, P. M., “[^3H] Resiniferatoxin binding by the vanilloid receptor: specific-related differences, effect of temperature and sulfhydryl reagents” (Naunyn-Schmiedeberg's Arch. Pharmacol., 1993, 347, 84-91). Briefly, about 120 μg protein/ml from membranes were incubated with indicated concentrations of [^3H] RTX in 0.5 ml of the HEPES buffer (pH 7.4) containing 0.25 mg/mL fat acid-free bovine serum albumin at 37° C. for 60 min. The reaction mixture was then cooled to 4° C., added 0.1 mg α1-acid glycoprotein to each sample and incubated at 4° C. for 15 min. The samples were centrifuged at 18500 x g for 15 min. The tip of the microcentrifuge tube containing the pellet was cut off. Bound radioactivity was quantified by scintillation counting. Non-specific binding was tested in the presence of 200 nM unlabeled RTX.
Membrane Incubation with [^3H] RTX and lodinated RTX Derivatives
Membranes were incubated with [^3H] RTX (0.4 nM) and varying concentrations of iodinated RTX derivatives at 37° C. for 60 min. […] RTX binding.

Structures are written as SMILES. Where two headings read alike, the source gives them in different places.

What is called IC50 is the midpoint of a concentration-inhibition curve.

T1 sequence (Q8NER1 whole entry): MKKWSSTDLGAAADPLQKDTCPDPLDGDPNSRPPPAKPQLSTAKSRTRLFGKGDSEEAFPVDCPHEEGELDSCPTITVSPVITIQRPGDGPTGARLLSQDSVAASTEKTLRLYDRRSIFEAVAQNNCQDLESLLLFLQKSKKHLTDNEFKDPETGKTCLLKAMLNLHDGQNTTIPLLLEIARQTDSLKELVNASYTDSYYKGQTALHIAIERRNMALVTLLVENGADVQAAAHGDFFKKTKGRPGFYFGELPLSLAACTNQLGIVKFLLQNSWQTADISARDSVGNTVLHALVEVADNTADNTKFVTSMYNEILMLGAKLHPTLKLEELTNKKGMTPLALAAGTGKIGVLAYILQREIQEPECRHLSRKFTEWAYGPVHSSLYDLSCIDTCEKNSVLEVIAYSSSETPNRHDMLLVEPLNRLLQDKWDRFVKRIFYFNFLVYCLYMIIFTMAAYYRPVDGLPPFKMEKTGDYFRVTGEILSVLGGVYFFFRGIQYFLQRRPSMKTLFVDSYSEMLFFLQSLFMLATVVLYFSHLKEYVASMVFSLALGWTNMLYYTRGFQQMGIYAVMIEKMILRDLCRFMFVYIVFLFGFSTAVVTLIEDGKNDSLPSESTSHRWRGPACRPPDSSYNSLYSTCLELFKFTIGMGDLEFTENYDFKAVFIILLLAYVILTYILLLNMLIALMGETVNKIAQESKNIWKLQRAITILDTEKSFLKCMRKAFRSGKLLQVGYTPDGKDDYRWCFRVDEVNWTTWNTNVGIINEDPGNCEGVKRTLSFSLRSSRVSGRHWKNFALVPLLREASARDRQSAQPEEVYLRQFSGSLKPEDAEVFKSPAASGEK

In the case of `C=C(C)C12CC(C)C34OC(Cc5ccccc5)(OC1C3C=C(COC(=O)Cc1cc(OC)c(O)cc1I)CC1(O)C(=O)C(C)=CC14)O2` (stereo not drawn) [Compound 2, 9,13,14-Orthophenylacetylresiniferonyl-20-(3-hydroxy-4-methoxy-6-iodophenylacetate)], the IC50 is 0.22 ± 0.03 nM. For `C=C(C)[C@]12C[C@@H](C)[C@@]34O[C@](Cc5ccccc5)(O[C@@H]1[C@@H]3C=C(COC(=O)Cc1ccc(O)c(OC)c1)C[C@]1(O)C(=O)C(C)=C[C@@H]41)O2` [RTX, resiniferatoxin], the IC50 ([3H] RTX 0.4 nM, 37° C. for 60 min, HEK293 membranes, two experiments, each point in duplicate, read-out: IC50 Value for Binding to a hVR1 Receptor) worked out at 0.09 ± 0.12 nM.

In turn, `C=C(C)C12CC(C)C34OC(Cc5ccccc5)(OC1C3C=C(COC(=O)Cc1cc(OC)c(OC(C)=O)cc1I)CC1(O)C(=O)C(C)=CC14)O2` (stereo not drawn) [Compound 1, 9,13,14-Orthophenylacetylresiniferonyl-20-(3-acetoxy-4-methoxy-6-Iodophenylacetate)] registered an IC50 of 0.31 ± 0.06 nM.

Values taken from patent publication US7112685B2, “Labeled resiniferatoxin derivatives” (Ortho-McNeil Pharmaceutical, Inc., priority 2000, dated 2006).
